# Results taken from patent US8637670B2, “Imidazo [4,5-C]quinoline derivatives and their use in the treatment of tumors and/or inflammation” (Piramal Enterprises Limited, priority 2009, dated 2014).
# Columns and labels:
# [1] = test system: A2780; test: Cytotoxicity, propidium iodide assay, A2780; format: cell-based; details: Homo sapiens; Ovarian, A2780, 48 hours treatment; read-out: IC50, C3a (A2780)
# Procedure: (§1) The assay was designed as in the reference, Anticancer Drugs, 2002, 13, 1-8, the disclosure of which is incorporated by reference for the teaching of the assay.
# (§2) Cells from cell lines as mentioned in the table given below were seeded at a density of 3000 cells/well in a white opaque 96-well plate. Following incubation at 37° C./5% CO2 for a period of 18-24 hours, the cells were treated with various concentrations (stock solution was prepared in DMSO and subsequent dilutions were made in media as per ATCC guidelines) of the compounds of Example 1-40 was for a period of 48 hours. At the end of treatment, the spent culture medium was discarded, the cells were washed with 1×PBS and 200 μl of 7 μg/ml propidium iodide was added to each well. The plates were frozen at −70° C. for at least 24 hours. For analysis, the plates were brought to RT, allowed to thaw and were read in PoleStar fluorimeter with the fluorescence setting. The percentage of viable cells in the non-treated set of wells was considered to be 100 and the percentage viability following treatment was calculated accordingly. IC50 values were calculated from graphs plotted using these percentages. Table 4 depicts the IC50 values of compounds of Example 1-40 in individual cell lines.
# (§3) The abbreviations for the Cell Lines as used in Table 4 are: […]
# [2] = test system: OVCAR 3; test: Cytotoxicity, propidium iodide assay, OVCAR 3; format: cell-based; details: Homo sapiens; Ovarian, OVCAR 3, 48 hours treatment; read-out: IC50, C3b (OVCAR 3)
# Procedure: as §1, §2, §3
# [3] = test system: IL-6; test: Human monocyte assay, LPS-stimulated IL-6 (ELISA); format: cell-based; details: human monocytes, 1 μg/ml LPS, 5 hours
# Procedure: The assay was designed as in the reference, Physiol. Res., 2003, 52, 593-598, the disclosure of which is incorporated by reference for the teaching of the assay.
# Peripheral blood mononuclear cells (hPBMC) were harvested from human blood and suspended in RPMI 1640 culture medium containing 10% FCS, 100 U/mL penicillin and […] streptomycin (assay medium). Monocytes in the hPBMCs were counted using a Coulter Counter following which the cells were resuspended at 2×10^5 monocytes/mL. A cell suspension containing 2×10^4 monocytes was aliquoted per well of a 96-well plate. Subsequently, the hPBMCs were incubated for 4-5 hours at 37° C. under 5% CO2 (During the incubation, the monocytes adhered to the bottom of 96-well plastic culture plate). Following the incubation, the non-adherent lymphocytes were washed with assay medium and the adherent monocytes re-fed with assay medium. After a 48-hour incubation period (37° C., 5% CO2), monocytes were pretreated with various concentrations of compounds of Example 1-40 (prepared in DMSO) or vehicle (0.5% DMSO) for 30 minutes and stimulated with 1 μg/ml LPS (Escherchia coli 0111:B4, Sigma Chemical Co., St. Louis, Mo.). The incubation was continued for 5 hours at 37° C., 5% CO2. Supernatants were harvested, assayed for IL-6 and TNF-α by ELISA as described by the manufacturer (BD Biosciences, USA). Dexamethasone (10 μM) was used as standard for this assay. The 50% inhibitory concentration (IC50) values were calculated by a nonlinear regression method. In all experiments, a parallel plate was run to ascertain the toxicity of compounds of Example 1-40. The toxicity was determined using the MTS assay as described in Am. J. Physiol. Cell Physiol., 2003, 285, C813-C822.
# [4] = test system: PC3; test: Cytotoxicity, propidium iodide assay, PC3; format: cell-based; details: Homo sapiens, PC-3; Prostate, PC3, 48 hours treatment; read-out: IC50, C2a (PC3)
# Procedure: as §1, §2, §3
# [5] = test system: H460; test: Cytotoxicity, propidium iodide assay, H460; format: cell-based; details: Homo sapiens, NCI-H460; Lung, H460, 48 hours treatment; read-out: IC50, C1b (H460)
# Procedure: as §1, §2, §3
# [6] = test system: U 373; test: Cytotoxicity, propidium iodide assay, U 373; format: cell-based; details: Homo sapiens, U373 MG; Glioblastoma, U 373, 48 hours treatment; read-out: IC50, C7a (U 373)
# Procedure: as §1, §2, §3
# [7] = target: T1, PI3Kα kinase (Homo sapiens, UniProt P42336); test: PI3Kα assay (32P incorporation into phosphatidylinositol, TLC densitometry); format: biochemical; details: At 100 nM
# T1 construct: purchased Millipore, USA
# Procedure: The assay was designed as in the reference, Cell, 2006, 125, 733-47 (Supplemental Data), the disclosure of which is incorporated by reference for the teaching of the assay.
# The kinase reaction was carried out in a 25 μL volume in a 1.5 mL microcentrifuge tube. The reaction mixture consisted of kinase buffer (10 mM Hepes, pH 7.5, 50 mM MgCl2), 20 ng PI3Kα kinase (Millipore, USA), 12.5 μg phosphatidylinositol (PI), 10 μM ATP and 1 μCi ^32γ P dATP. Compounds of Example 1-40 were added at concentrations (stock solution was prepared in DMSO and subsequent dilutions were made in kinase buffer) as mentioned in the table. The reaction mixture was incubated at 30° C. for 20 minutes and was terminated by adding 1:1 mixture of MeOH and chloroform. The tube contents were mixed on a vortex mixer and centrifuged at 10000 rpm for 2 minutes. 10 μL of the organic (lower) phase was spotted on to a TLC plate (silica, mobile phase: n-propanol and 2 M glacial acetic acid in 65:35 ratio). The plates were dried and exposed to an X-ray film. The bands appearing as a result of ^32γ P incorporation in PI were quantitated using the QuantityOne (BioRad, USA) densitometry program. PI-103 (Calbiochem, USA) was used as a standard.
# [8] = test system: PANC 1; test: Cytotoxicity, propidium iodide assay, PANC 1; format: cell-based; details: Homo sapiens; Pancreatic, PANC 1, 48 hours treatment; read-out: IC50, C5a (PANC 1)
# Procedure: as §1, §2, §3
# [9] = test system: HCT116; test: Cytotoxicity, propidium iodide assay, HCT116; format: cell-based; details: Homo sapiens, HCT-116; Colon, HCT116, 48 hours treatment; read-out: IC50, C4a (HCT116)
# Procedure: as §1, §2, §3
# [10] = test system: A549; test: Cytotoxicity, propidium iodide assay, A549; format: cell-based; details: Homo sapiens; Lung, A549, 48 hours treatment; read-out: IC50, C1a (A549)
# Procedure: as §1, §2, §3
# T1 sequence (P42336 whole entry): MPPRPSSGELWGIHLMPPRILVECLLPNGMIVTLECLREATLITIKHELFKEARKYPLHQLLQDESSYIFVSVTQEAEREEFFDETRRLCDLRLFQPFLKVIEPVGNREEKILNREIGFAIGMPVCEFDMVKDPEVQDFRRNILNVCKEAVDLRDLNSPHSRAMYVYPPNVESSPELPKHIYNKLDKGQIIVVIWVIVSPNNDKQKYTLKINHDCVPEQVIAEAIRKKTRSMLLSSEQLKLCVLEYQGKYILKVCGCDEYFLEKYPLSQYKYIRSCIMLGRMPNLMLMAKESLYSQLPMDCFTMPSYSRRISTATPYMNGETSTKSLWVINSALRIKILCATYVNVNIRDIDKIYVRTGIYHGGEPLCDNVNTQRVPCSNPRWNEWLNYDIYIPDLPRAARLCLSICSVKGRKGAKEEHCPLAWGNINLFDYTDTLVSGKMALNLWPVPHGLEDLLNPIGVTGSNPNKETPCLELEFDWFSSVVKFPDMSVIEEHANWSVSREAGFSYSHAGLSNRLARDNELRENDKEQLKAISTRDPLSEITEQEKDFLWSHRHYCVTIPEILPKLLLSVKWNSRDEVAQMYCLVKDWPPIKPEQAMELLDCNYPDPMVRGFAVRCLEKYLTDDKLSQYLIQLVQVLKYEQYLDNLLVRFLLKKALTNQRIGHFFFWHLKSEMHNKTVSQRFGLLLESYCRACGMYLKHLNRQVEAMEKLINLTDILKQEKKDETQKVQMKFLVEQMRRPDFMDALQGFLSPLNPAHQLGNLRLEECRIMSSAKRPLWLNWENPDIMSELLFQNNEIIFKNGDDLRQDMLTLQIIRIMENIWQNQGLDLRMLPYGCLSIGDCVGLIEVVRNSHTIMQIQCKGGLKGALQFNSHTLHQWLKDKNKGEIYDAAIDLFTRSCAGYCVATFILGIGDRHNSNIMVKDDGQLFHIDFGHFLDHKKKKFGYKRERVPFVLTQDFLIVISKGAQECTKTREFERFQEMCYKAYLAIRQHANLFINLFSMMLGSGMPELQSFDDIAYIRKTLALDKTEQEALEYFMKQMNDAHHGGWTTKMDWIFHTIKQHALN
# T1 sequence (P27986 whole entry partner): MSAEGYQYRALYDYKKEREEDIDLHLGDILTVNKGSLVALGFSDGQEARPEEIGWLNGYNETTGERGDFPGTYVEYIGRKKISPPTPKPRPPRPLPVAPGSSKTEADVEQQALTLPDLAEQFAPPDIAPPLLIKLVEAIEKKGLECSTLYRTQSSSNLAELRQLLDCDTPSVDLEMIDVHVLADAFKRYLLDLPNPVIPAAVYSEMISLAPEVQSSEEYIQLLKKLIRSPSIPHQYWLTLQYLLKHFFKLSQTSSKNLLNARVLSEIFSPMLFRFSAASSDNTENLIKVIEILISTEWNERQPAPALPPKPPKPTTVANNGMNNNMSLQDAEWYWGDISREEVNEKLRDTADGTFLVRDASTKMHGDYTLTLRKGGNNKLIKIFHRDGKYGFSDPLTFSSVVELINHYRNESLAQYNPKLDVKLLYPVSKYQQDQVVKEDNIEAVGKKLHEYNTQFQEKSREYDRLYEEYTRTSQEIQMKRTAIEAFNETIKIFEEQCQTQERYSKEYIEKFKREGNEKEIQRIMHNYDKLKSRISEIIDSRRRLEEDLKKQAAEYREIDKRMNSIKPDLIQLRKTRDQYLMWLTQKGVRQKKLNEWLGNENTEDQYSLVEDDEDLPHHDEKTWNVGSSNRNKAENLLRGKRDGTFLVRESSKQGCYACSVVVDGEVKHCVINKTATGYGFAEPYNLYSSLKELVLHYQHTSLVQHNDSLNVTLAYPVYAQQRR
IC50 [3],Compound,IC50 [1],IC50 [9],IC50 [10],further results
10 to 30 µM,"CC(C)(C#N)c1ccc(-n2c(=O)n(S(=O)(=O)c3cccs3)c3cnc4ccc(Br)cc4c32)cc1 [Example 9, 2-(4-(8-Bromo-2-oxo-3-(thiophen-2-ylsulfonyl)-2,3-dihydro-1H-imidazo[4,5-c]quinolin-1-yl)phenyl)-2-methylpropanenitrile]",≤ 1000 nM,> 3000 nM,1000 to 3000 nM,IC50 [8]: > 3000 nM
> 30 µM,"CC(C)(C#N)c1ccc(-n2c(=O)n(S(=O)(=O)c3cccc(F)c3)c3cnc4ccc(Br)cc4c32)cc1 [Example 10, 2-(4-(8-Bromo-3-(3-fluorophenylsulfonyl)-2-oxo-2,3-dihydro-1H-imidazo[4,5-c]quinolin-1-yl)phenyl)-2-methylpropanenitrile]",1000 to 3000 nM,1000 to 3000 nM,1000 to 3000 nM,IC50 [8]: > 3000 nM
> 30 µM,"CC(=O)c1ccc(S(=O)(=O)n2c(=O)n(-c3ccc(C(C)(C)C#N)cc3)c3c4cc(Br)ccc4ncc32)cc1 [Example 12, 2-(4-(3-(4-Acetylphenylsulfonyl)-8-bromo-2-oxo-2,3-dihydro-1H-imidazo[4,5-c]quinolin-1-yl)phenyl)-2-methylpropanenitrile]",1000 to 3000 nM,> 3000 nM,1000 to 3000 nM,IC50 [4]: > 3000 nM; IC50 [5]: 1000 to 3000 nM
1 to 10 µM,"COc1cccc(S(=O)(=O)n2c(=O)n(-c3ccc(C(C)(C)C#N)cc3)c3c4cc(Br)ccc4ncc32)c1 [Example 14, 2-(4-(8-Bromo-3-(3-methoxyphenylsulfonyl)-2-oxo-2,3-dihydro-1H-imidazo[4,5-c]quinolin-1-yl)phenyl)-2-methylpropanenitrile]",,,,

# The next lines start with the compound.
Compound,IC50 [3],IC50 [1],IC50 [9],IC50 [10],further results
"CC(C)(C#N)c1ccc(-n2c(=O)n(S(=O)(=O)c3ccc(OC(F)(F)F)cc3)c3cnc4ccc(Br)cc4c32)cc1 [Example 1, 2-(4-(8-Bromo-2-oxo-3-(4-(trifluoromethoxy)phenylsulfonyl)-2,3-dihydro-1H-imidazo[4,5-c]quinolin-1-yl)phenyl)-2-methylpropanenitrile]",10 to 30 µM,≤ 1000 nM,,,IC50 [2]: 1000 to 3000 nM; IC50 [4]: 1000 to 3000 nM; IC50 [5]: 1000 to 3000 nM; IC50 [6]: > 3000 nM
"CC(C)(C#N)c1ccc(-n2c(=O)n(S(=O)(=O)c3ccccc3)c3cnc4ccc(Br)cc4c32)cc1 [Example 7, 2-(4-(8-Bromo-2-oxo-3-(phenylsulfonyl)-2,3-dihydro-1H-imidazo[4,5-c]quinolin-1-yl)phenyl)-2-methylpropanenitrile]",,,,,inhibition at 0.1 µM [7]: 10 to 50%
"Cc1ccc(S(=O)(=O)n2c(=O)n(-c3ccc(C(C)(C)C#N)cc3)c3c4cc(Br)ccc4ncc32)cc1 [Example 8, 2-(4-(8-Bromo-2-oxo-3-tosyl-2,3-dihydro-1H-imidazo[4,5-c]quinolin-1-yl)phenyl)-2-methylpropanenitrile]",,,,,inhibition at 0.1 µM [7]: 10 to 50%
"CC(C)(C#N)c1ccc(-n2c(=O)n(S(=O)(=O)c3cccc4cccnc34)c3cnc4ccc(Br)cc4c32)cc1 [Example 11, 2-(4-(8-Bromo-2-oxo-3-(quinolin-8-ylsulfonyl)-2,3-dihydro-1H-imidazo[4,5-c]quinolin-1-yl)phenyl)-2-methylpropanenitrile]",> 30 µM,> 3000 nM,> 3000 nM,> 3000 nM,IC50 [8]: > 3000 nM
"CC(C)(C#N)c1ccc(-n2c(=O)n(S(=O)(=O)c3ccccc3C#N)c3cnc4ccc(Cl)cc4c32)cc1 [Example 20, 2-(8-Chloro-1-(4-(2-cyanopropan-2-yl)phenyl)-2-oxo-1H-imidazo[4,5-c]quinolin-3(2H)-ylsulfonyl)benzonitrile]",,,,,inhibition at 0.1 µM [7]: 10 to 50%
"Cc1cccc(S(=O)(=O)n2c(=O)n(-c3ccc(C(C)(C)C#N)cc3)c3c4cc(C)ccc4ncc32)c1 [Example 21, 2-Methyl-2-(4-(8-methyl-2-oxo-3-(m-tolylsulfonyl)-2,3-dihydro-1H-imidazo[4,5-c]quinolin-1-yl)phenyl)propanenitrile]",1 to 10 µM,,> 3000 nM,> 3000 nM,
"Cc1ccc2ncc3c(c2c1)n(-c1ccc(C(C)(C)C#N)cc1)c(=O)n3S(=O)(=O)c1cccc(F)c1 [Example 22, 2-(4-(3-(3-Fluorophenylsulfonyl)-8-methyl-2-oxo-2,3-dihydro-1H-imidazo[4,5-c]quinolin-1-yl)phenyl)-2-methylpropanenitrile]",10 to 30 µM,,> 3000 nM,> 3000 nM,
"Cc1ccc2ncc3c(c2c1)n(-c1ccc(C(C)(C)C#N)cc1)c(=O)n3S(=O)(=O)c1cc([N+](=O)[O-])ccc1C [Example 23, 2-Methyl-2-(4-(8-methyl-3-(2-methyl-5-nitrophenylsulfonyl)-2-oxo-2,3-dihydro-1H-imidazo[4,5-c]quinolin-1-yl)phenyl)propanenitrile]",,,> 3000 nM,> 3000 nM,
"Cc1ccc2ncc3c(c2c1)n(-c1ccc(C(C)(C)C#N)cc1)c(=O)n3S(=O)(=O)c1cccc2cccnc12 [Example 24, 2-Methyl-2-(4-(8-methyl-2-oxo-3-(quinolin-8-ylsulfonyl)-2,3-dihydro-1H-imidazo[4,5-c]quinolin-1-yl)phenyl)propanenitrile]",,> 3000 nM,> 3000 nM,,IC50 [4]: > 3000 nM; IC50 [5]: > 3000 nM
"COc1ccc(NC(=O)n2c(=O)n(-c3ccc(C(C)(C)C#N)cc3)c3c4cc(Br)ccc4ncc32)cc1 [Example 31, 8-Bromo-1-(4-(2-cyanopropan-2-yl)phenyl)-N-(4-methoxyphenyl)-2-oxo-1H-imidazo[4,5-c]quinoline-3(2H)-carboxamide]",,> 3000 nM,> 3000 nM,1000 to 3000 nM,IC50 [8]: > 3000 nM
"CC(C)(C#N)c1ccc(-n2c(=O)n(C(=O)NCc3ccccc3)c3cnc4ccc(Br)cc4c32)cc1 [Example 32, N-benzyl-8-bromo-1-(4-(2-cyanopropan-2-yl)phenyl)-2-oxo-1H-imidazo[4,5-c]quinoline-3(2H)-carboxamide]",> 30 µM,,,,inhibition at 0.1 µM [7]: 10 to 50%
"C/C=C/C(=O)n1c(=O)n(-c2ccc(C(C)(C)C#N)cc2)c2c3cc(C)ccc3ncc21 [Example 39, (E)-2-(4-(3-But-2-enoyl-8-methyl-2-oxo-2,3-dihydro-1H-imidazo[4,5-c]quinolin-1-yl)phenyl)-2-methylpropanenitrile]",≤ 1 µM,,> 3000 nM,> 3000 nM,
